Laboratory results taken from US6111145A, “Cyclopentenone derivative” (Takara Shuzo Company, priority 1997, dated 2000).

Experiments:
topoisomerase II = topoisomerase II (Homo sapiens, UniProt P11388); experiment: Topoisomerase II inhibition, pBR322 DNA relaxation by agarose gel electrophoresis; type: biochemical
Protocol: (1) One μl of 0.25 μg/μl pBR322 DNA (manufactured by Takara Shuzo) was added to a mixture of 2 μl of topoisomerase II (manufactured by TopoGEN, 2 units/μl), 2 μl of a buffer with a ten-fold diluted concentration [0.5M Tris-HCl (pH 8.0), 1.2M KCl, 0.1M MgCl2, 5 mM adenosine triphosphate and 5 mM dithiothreitol], 2 μl of 0.1% bovine serum albumin (manufactured by Takara Shuzo), 11 μl of distilled water and 2 μl of distilled water (a control) or 4,5-di-tert-butylcyclopentenone ether prepared into various concentrations by water and made to react at 37° C. After the reaction for 30 minutes, the reaction was stopped by adding 2 μl aqueous solution of 1% sodium dodecylsulfate, 50% glycerol and 0.02% Bromophenol Blue.
The above reaction solution (20 μl) was applied to 1% agarose gel prepared from agarose L03 (manufactured by Takara Shuzo) and TAE buffer [40 mM Tris, 5mM sodium acetate and 1 mM disodium ethylenediaminetetraacetate (EDTA); adjusted to pH 7.8 with acetic acid] and electrophoresis was conducted in the TAE buffer. After the electrophoresis, the gel was dipped in an aqueous solution of 1 μg/ml ethidium bromide and irradiated with ultraviolet ray to observe the electrophoretic pattern of DNA.

[1] = parameters: species or system mice; settings: mouse, in vivo, 300 mg/kg
[2] = test system: carrageenan-induced pedal edema; experiment: Carrageenan-induced pedal edema model; type: in vivo; settings: Lewis rats, oral 1 or 10 mg/kg in olive oil 0.5 hour before carrageenan, paw volume after three hours
Protocol: Lewis rats (male; nine weeks age; body weight: about 250 g) were purchased from Seakku-Yoshitomi and the inflammation models such as carrageenan-induced pedal edema model (a model of rheumatoid arthritis) were prepared as follows whereby the tested substances were evaluated.
Thus, 4-tert-butylcyclopentenone ether or 4,5-di-tert-butylcyclopentenone ether in various concentrations by dissolving in olive oil (manufactured by Nacalai Tesque) was orally administered at the dose of 1 mg/10 ml/kg or 10 mg/10 ml/kg to rats which were fasted for 18 hours before initiation of the experiment.
After 0.5 hour from administration of these test drugs, 100 μl/rat of 1% suspension of carrageenan (manufactured by Wako) in a physiologically saline solution (manufactured by Otsuka Pharmaceutical) was injected to right paw to induce pedal edema. After three hours from the carrageenan injection, volume of right paw of the rat was measured by a pedal volume measuring device (manufactured by UGO BASILE). Incidentally, the measured value was expressed by calculating the increasing rate from the right paw volume of each rat measured before the carrageenan administration.

[3] = test system: Promyelocytic leukemia cell strain HL-60 (ATCC CCL-240); experiment: Growth of HL-60 cells, MTT method with microscopic observation; type: cell-based, human; settings: HL-60, at the concentration completely suppressing growth
Protocol: (1) A 1.22, 2.44, 4.88, 9.77, 19.5, 39.1, 78.1, 156, 313, 625, 1250, 2500, 5000 or 10000 μg/ml solution (10 μl) (in 70% aqueous solution of ethanol) of 4-benzylcyclopentenone ether, 5-benzylcyclopentenone ether or 4,5-dibenzylcyclopentenone ether or a 70% aqueous solution of ethanol as a control (10 μl) was added to each well of a 96-well microtiter plate followed by drying with air. Promyelocytic leukemia cell strain HL-60 (ATCC CCL-240) was suspended in an RPMI 1640 medium containing 10% of fetal calf serum to an extent of 1×10^5 cells/ml, each 100 μl thereof was poured into each well of the above microtiter plate and incubated at 37° C. for 48 hours in the presence of 5% of CO2. Incubation was continued for four hours more after addition of 10 μl of a solution (5 mg/ml) of 3-(4,5-dimethylthiazol-2-yl)-2,5-diphenyltetrazolium bromide (MTT; manufactured by Sigma) in a phosphate-buffered aqueous saline solution and then the state of growth of the cells was observed under a microscope. Further, 100 μl of 2-propanol containing 0.04N HCl was added thereto followed by well stirring and the absorbance at 590 nm was measured.
(2) Influence of 4-tert-butylcyclopentenone ether, 5-tert-butylcyclopentenone ether or 4,5-di-tert-butylcyclopentenone ether to the growth of HL-60 cells was measured by the same method as in Example 2-(1).

Chain of topoisomerase II (P11388 whole entry): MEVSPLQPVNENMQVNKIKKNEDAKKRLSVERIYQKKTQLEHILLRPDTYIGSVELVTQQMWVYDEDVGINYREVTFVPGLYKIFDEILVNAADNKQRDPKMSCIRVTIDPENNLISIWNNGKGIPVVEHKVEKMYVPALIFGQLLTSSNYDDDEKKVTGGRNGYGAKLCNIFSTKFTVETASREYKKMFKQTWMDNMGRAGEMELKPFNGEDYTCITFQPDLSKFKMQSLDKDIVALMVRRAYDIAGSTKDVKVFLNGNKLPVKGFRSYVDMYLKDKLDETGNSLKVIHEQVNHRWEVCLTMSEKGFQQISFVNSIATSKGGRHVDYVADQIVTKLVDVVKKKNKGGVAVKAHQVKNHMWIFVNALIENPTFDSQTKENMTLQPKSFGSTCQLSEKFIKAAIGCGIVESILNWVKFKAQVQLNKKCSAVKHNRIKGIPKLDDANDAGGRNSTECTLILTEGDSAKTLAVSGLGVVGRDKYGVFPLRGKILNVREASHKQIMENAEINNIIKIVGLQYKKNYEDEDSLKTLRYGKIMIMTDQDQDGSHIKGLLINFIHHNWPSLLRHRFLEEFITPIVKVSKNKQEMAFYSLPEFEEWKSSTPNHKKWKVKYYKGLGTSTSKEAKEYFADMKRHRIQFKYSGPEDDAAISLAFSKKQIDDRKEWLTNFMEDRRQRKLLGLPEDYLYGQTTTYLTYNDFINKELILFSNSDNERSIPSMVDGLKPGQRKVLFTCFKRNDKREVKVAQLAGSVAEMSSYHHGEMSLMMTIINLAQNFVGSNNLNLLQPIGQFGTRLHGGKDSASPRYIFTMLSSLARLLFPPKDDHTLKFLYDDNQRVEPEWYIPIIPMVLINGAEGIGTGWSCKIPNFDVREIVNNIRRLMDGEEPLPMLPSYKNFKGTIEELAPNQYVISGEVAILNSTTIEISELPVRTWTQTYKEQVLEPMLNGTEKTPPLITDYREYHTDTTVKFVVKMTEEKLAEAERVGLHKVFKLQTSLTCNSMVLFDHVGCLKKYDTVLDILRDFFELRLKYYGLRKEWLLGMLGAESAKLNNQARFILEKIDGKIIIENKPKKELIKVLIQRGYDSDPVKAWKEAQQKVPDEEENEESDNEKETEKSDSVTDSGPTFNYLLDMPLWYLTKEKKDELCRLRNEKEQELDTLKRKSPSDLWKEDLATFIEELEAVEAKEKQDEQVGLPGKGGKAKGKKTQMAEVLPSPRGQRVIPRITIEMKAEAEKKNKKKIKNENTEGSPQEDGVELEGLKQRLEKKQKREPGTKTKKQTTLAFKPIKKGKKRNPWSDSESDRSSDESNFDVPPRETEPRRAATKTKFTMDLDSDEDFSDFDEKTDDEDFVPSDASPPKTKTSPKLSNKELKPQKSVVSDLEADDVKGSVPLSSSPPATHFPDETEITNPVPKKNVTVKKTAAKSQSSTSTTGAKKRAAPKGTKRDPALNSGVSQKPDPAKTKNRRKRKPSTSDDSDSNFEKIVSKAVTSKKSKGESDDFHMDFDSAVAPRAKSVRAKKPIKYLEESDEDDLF

CC(C)(C)O[C@@H]1C(=O)C=C[C@H]1OC(C)(C)C (relative stereo) [4,5-di-tert-butylcyclopentenone ether]
superhelix DNA remaining (topoisomerase II; 250 μM in the reaction solution): the superhelix DNA remained to an medium extent
superhelix DNA remaining (topoisomerase II; 500 μM in the reaction solution): most of the superhelix DNA remained
superhelix DNA remaining (topoisomerase II; 1000 μM in the reaction solution): the superhelix DNA did not decrease at all
concentration in the reaction solution showing topoisomerase suppressing activity (topoisomerase II; pBR322 DNA, 37° C., 30 minutes): not less than 250 μM
death after single oral administration [1]: no dead case was noted
suppressing action to edema induced by carrageenan (increasing rate of pedal edema) [2]: showed an suppressing action to edema

O=C1C=C[C@@H](OCc2ccccc2)[C@@H]1OCc1ccccc1 (relative stereo) [4,5-dibenzylcyclopentenone ether]
formation of apoptic body [3]: Formation of apoptic body was noted

O=C1C=C[C@@H](OCc2ccccc2)[C@@H]1O (relative stereo) [4-benzylcyclopentenone ether]
formation of apoptic body [3]: Formation of apoptic body was noted

CC(C)(C)O[C@@H]1C=CC(=O)[C@H]1O (relative stereo) [4-tert-butylcyclopentenone ether]
death after single oral administration [1]: no dead case was noted
suppressing action to edema induced by carrageenan (increasing rate of pedal edema) [2]: showed an suppressing action to edema

O=C1C=C[C@@H](O)[C@@H]1OCc1ccccc1 (relative stereo) [5-benzylcyclopentenone ether]
formation of apoptic body [3]: Formation of apoptic body was noted
